The source of these data is patent US8106168B2, “Metalloproteinase binding proteins” (Dyax Corp., priority 2005, dated 2012).

One experiment has as its system B16F1 melanoma tumors. In words: B16F1 melanoma subcutaneous tumor growth. It is filed as in vivo, mouse. The settings on record: M0038-F01 10, 1 or 0.1 mg/kg Q2d IP; doxorubicin 5 mg/kg weekly IP. The source says: B16F1 melanoma cells were implanted into Female C57/BL6 (CR) mice (4-6 Weeks old) mice by subcutaneous injection.
The next experiment has as its system MDA-MB-231-GFP tumors. Kind of experiment: MDA-MB-231-GFP orthotopic breast tumor growth and metastasis.
Experiment [1] relates to activation of pro-MMP-2 by MMP-14 in PMA-activated HT-1080 cells. In words: Gelatin zymogram, pro-MMP-2 activation in HT-1080 cells. Format: cell-based, human. The settings on record: gelatin zymography of conditioned media after 3 days; antibodies 10 μg/ml, GM6001 10 μM. The procedure: The ability of anti-MMP-14 IgGs to inhibit the activation of pro-MMP-2 by MMP-14 was examined by gelatin zymogram experiments performed with PMA-activated HT-1080 cells. M0033-H07 and M0038-F01 were tested for their ability to inhibit MMP-14 in this assay. HT1080 cells (well-known to express MMP-14 and MMP-2) were seeded at 5×10^5 cells/well at Day 0. […] HT-1080 cells cultured in the presence of 20 ng/ml of PMA were used as a positive control.
After 3 days of incubation, conditioned media were collected and gelatinolytic activities were analyzed by gelatin zymography as described previously (Maquoi et al, J Biol Chem 2000; 275:11368-78). When HT-1080 cells are activated with a phorbol ester, pro-MMP-2 is activated into MMP-2 (lane 1).

The subject of another experiment is PC3 prostate tumors. Kind of experiment: PC3 prostate tumor growth. Conditions: M0038-F01 10, 1 or 0.1 mg/kg Q2d IP; taxotere 10 mg/kg weekly IP; A2 10 mg/kg Q2d. Format: in vivo, mouse. The source says:
PC3 prostate cancer cells were implanted into male nude mice by subcutaneous injection.

For a further experiment, the system named is MDA-MB-435 GFP tumors. Kind of experiment: MDA-MB-435 GFP orthotopic breast tumor growth. It is filed as in vivo, mouse. The source says:
Fragments of MDA-MB-435 GFP (MDA-MB-435 cells expressing green fluorescent protein) tumors were transplanted by surgical orthotopic implantation (SOI) into the right second mammary gland. Treatment was started on day 15 after SOI when the volume of primary tumors reached about 85 mm^3.
Mice were sacrificed at day 61 after the start of the treatment and tumors (primary and metastases) were identified by fluorescent imaging. Additionally, primary tumors were excised and weighed. […] However, M0038-F01 was not effective in reducing lymph node or lung metastases in this experiment.

Where [2] appears, read: immunostaining of tumor tissue, day 35.
[3] abbreviates: immunostaining of tumor tissue, day 35 post-treatment, image analysis.

Each structure is given as a SMILES string.

Experimental for MDA-MB-231-GFP tumors: Human breast cancer cells MDA-MB-231 cells transfected with green fluorescent protein (MDA-MB-231-GFP) were inoculated into the mammary fat pad of female BALB/c nu/nu mice with Matrigel. Animals were monitored for tumor growth, and at week 4-5 post tumor cell inoculation, animals with tumors of 30-50 mm^3 were selected, randomized and divided into experimental groups. […] Tumor volume was measured weekly, starting at week 5. Additionally, tissue samples of lung, liver, and spleen were taken to assess metastasis.
Animals were inoculated with MDA-MB-231-GFP cells as described above, then selected and randomized, and divided into experimental groups of 8 animals each. […] Tumor volume was measured weekly, starting at week 5.
Tumor tissue samples were collected on day 35 post-treatment for immunohistochemical analysis. Paraffin-embedded tissue samples were sectioned, stained with CD31 (Santa Cruz Biotechnology Inc., Santa Cruz, Calif., USA), Ki-67 (DAKO, Carpinteria, Calif., USA), MAPK, FAK, phosphoMAPK or phosphoFAK antibodies, visualized with biotinylated secondary antibodies using a VECTASTAIN® ABC (Vector Laboratories Inc., Burlingame, Calif., USA), and lightly counterstained with haemotoxylin.

Regarding `COc1cccc2c1C(=O)c1c(O)c3c(c(O)c1C2=O)C[C@@](O)(C(=O)CO)C[C@@H]3O[C@H]1C[C@H](N)[C@H](O)[C@H](C)O1` [DOX, doxorubicin], the tumor growth result in the experiment on B16F1 melanoma tumors is “effective in reducing tumor growth”. Also, the metastases to spleen result in the experiment on MDA-MB-231-GFP tumors (M0038-F01 10 mg/kg Q2d IP, DOX 5 mg/kg weekly IP) was “reduced in DOX and M0038-F01 treated animals, but the difference was not statistically significant”. The “lung and liver metastases” value with MDA-MB-231-GFP tumors (M0038-F01 10 mg/kg Q2d IP, DOX 5 mg/kg weekly IP, compared to controls) is given as “statistically significant reduction”. In addition, the “tumor growth (tumor volume)” value with MDA-MB-231-GFP tumors (M0038-F01 or A2 10 mg/kg Q2d IP, DOX 5 mg/kg weekly IP, five weeks) is listed as “substantially inhibited”. Moreover, in the experiment with MDA-MB-231-GFP tumors (setting [2]), the “CD31 and KI67 levels compared to vehicle and A2 controls” value is listed as “slightly reduced”; the phospho-FAK level is reported as 4±1.2 A.U; the phospho-MAP kinase level is reported as 5.8±1.9 A.U; the “total FAK level” value is recorded as 6±1 A.U. The “total MAP kinase level” value in the experiment on MDA-MB-231-GFP tumors (setting [2]) is listed as 5.8±1.9 A.U. In the experiment with MDA-MB-231-GFP tumors (setting [3]), this compound registered a CD31 of 4.08 ± 1.28 and a Ki67 of 5.2 ± 0.84.

For the compound `CNC(=O)[C@H](Cc1c[nH]c2ccccc12)NC(=O)[C@@H](CC(=O)NO)CC(C)C` [GM6001, reference compound], in experiment [1], the “pro-MMP-2 activation by MMP-14” value is recorded as “completely abolished” and the pro-MMP-9 expression entry is “paradoxically stimulated”.

For `CC(=O)O[C@@]12CO[C@@H]1C[C@H](O)[C@@]1(C)C(=O)[C@H](O)C3=C(C)[C@@H](OC(=O)[C@H](O)[C@@H](NC(=O)OC(C)(C)C)c4ccccc4)C[C@@](O)([C@@H](OC(=O)c4ccccc4)[C@H]21)C3(C)C` [Taxotere, taxotere, reference compound], the “tumor growth (tumor volume)” value in the experiment with PC3 prostate tumors was “extremely effective”. The “Tumor Mass (±SD)” value with MDA-MB-435 GFP tumors (10 mg/kg (F01 and A2 Q2d IP; taxotere QW×3 i.v.), excised primary tumor, day 61, * p≦0.05 compared to Control) is 0.59 ± 0.59*. Also, in the experiment on MDA-MB-435 GFP tumors (M0038-F01 1 or 10 mg/kg Q2d IP, taxotere 10 mg/kg QW×3 i.v.), the tumor volume entry is listed as “reduction of tumor volume”.
